Reference: ChEMBL document CHEMBL1201862, “PubChem BioAssay data set” (2004)
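Protocol summary: plate cells (96-well), add compound at 5 concentrations, incubate 48 h, interpolate endpoints linearly. Here, GI50 denotes the concentration required for 50% inhibition of growth.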 The source made the active and inactive calls. Cut-off read from the data, not from the text of the source: active = GI50 up to about 1.1 µM and inactive = higher.

Assays:
Experiment in all cases: inhibition of tumour cell growth, NCI panel, 48 h
[1] = test system: 786-0
[2] = test system: A498
[3] = test system: A549
[4] = test system: ACHN
[5] = test system: CAKI-1
[6] = test system: CCRF-CEM
[7] = test system: COLO 205
[8] = test system: DLD-1
[9] = test system: DU-145
[10] = test system: HCC 2998
[11] = test system: HCT-116
[12] = test system: HCT-15
[13] = test system: HL-60
[14] = test system: HOP-18
[15] = test system: HOP-92
[16] = test system: HT-29
[17] = test system: IGROV-1
[18] = test system: K562
[19] = test system: KM-20L2
[20] = test system: KM12
[21] = test system: LOX IMVI
[22] = test system: LXFL 529
[23] = test system: M14
[24] = test system: M19-MEL
[25] = test system: MOLT-4
[26] = test system: Malme-3M
[27] = test system: NCI-H226
[28] = test system: NCI-H23
[29] = test system: NCI-H460
[30] = test system: NCI-H522
[31] = test system: OVCAR-3
[32] = test system: OVCAR-4
[33] = test system: OVCAR-5
[34] = test system: OVCAR-8
[35] = test system: RPMI-8226
[36] = test system: RXF 393
[37] = test system: SF-268
[38] = test system: SF-295
[39] = test system: SF-539
[40] = test system: SK-MEL-28
[41] = test system: SK-MEL-2
[42] = test system: SK-MEL-5
[43] = test system: SK-OV-3
[44] = test system: SN12C
[45] = test system: SNB-19
[46] = test system: SNB-75
[47] = test system: SR
[48] = test system: SW-620
[49] = test system: TK-10
[50] = test system: U-251
[51] = test system: UACC-257
[52] = test system: UACC-62
[53] = test system: UO-31
[54] = test system: XF498
[55] = test system: DMS-114
[56] = test system: DMS-273
[57] = test system: EKVX
[58] = test system: HOP-62
[59] = test system: SNB-78

COC(=O)C1=C(C(=O)OC)C23CC4CCC2(C(=O)C1O3)C4(C)C (stereo not drawn)
GI50 [1]: > 100 µM (inactive) | GI50 [2]: > 100 µM (inactive) | GI50 [3]: > 100 µM (inactive) | GI50 [4]: > 100 µM (inactive) | GI50 [5]: > 100 µM (inactive) | GI50 [6]: 22.1 µM (inactive) | GI50 [7]: > 100 µM (inactive) | GI50 [8]: 57.1 µM (inactive) | GI50 [9]: > 100 µM (inactive) | GI50 [10]: > 100 µM (inactive) | GI50 [11]: 51.8 µM (inactive) | GI50 [12]: > 100 µM | GI50 [13]: 21.2 µM (inactive) | GI50 [14]: 95.9 µM (inactive) | GI50 [15]: 48.5 µM (inactive) | GI50 [16]: > 100 µM (inactive) | GI50 [17]: > 100 µM (inactive) | GI50 [18]: 56.2 µM (inactive) | GI50 [19]: > 100 µM (inactive) | GI50 [20]: > 100 µM (inactive) | GI50 [21]: 84.5 µM (inactive) | GI50 [22]: > 100 µM (inactive) | GI50 [23]: > 100 µM (inactive) | GI50 [24]: > 100 µM (inactive) | GI50 [25]: 30.4 µM (inactive) | GI50 [26]: > 100 µM (inactive) | GI50 [27]: > 100 µM (inactive) | GI50 [28]: > 100 µM (inactive) | GI50 [29]: > 100 µM (inactive) | GI50 [30]: 22 µM (inactive) | GI50 [31]: > 100 µM (inactive) | GI50 [32]: > 100 µM (inactive) | GI50 [33]: > 100 µM (inactive) | GI50 [34]: > 100 µM (inactive) | GI50 [35]: 34.1 µM (inactive) | GI50 [36]: 58.5 µM (inactive) | GI50 [37]: 94.4 µM (inactive) | GI50 [38]: 95.1 µM (inactive) | GI50 [39]: > 100 µM (inactive) | GI50 [40]: > 100 µM (inactive) | GI50 [41]: > 100 µM (inactive) | GI50 [42]: > 100 µM (inactive) | GI50 [43]: > 100 µM (inactive) | GI50 [44]: > 100 µM (inactive) | GI50 [45]: > 100 µM (inactive) | GI50 [46]: 53.8 µM (inactive) | GI50 [47]: 26.7 µM (inactive) | GI50 [48]: 78.3 µM (inactive) | GI50 [49]: > 100 µM (inactive) | GI50 [50]: > 100 µM (inactive) | GI50 [51]: > 100 µM (inactive) | GI50 [52]: 73.1 µM (inactive) | GI50 [53]: > 100 µM (inactive) | GI50 [54]: > 100 µM (inactive)

CC(C)OP(=O)(OC(C)C)c1ncn(-c2ccc([N+](=O)[O-])cc2)n1
GI50 [2]: > 100 µM (inactive) | GI50 [3]: > 100 µM (inactive) | GI50 [4]: > 100 µM (inactive) | GI50 [5]: > 100 µM (inactive) | GI50 [6]: > 100 µM (inactive) | GI50 [7]: > 100 µM (inactive) | GI50 [8]: > 100 µM (inactive) | GI50 [55]: > 100 µM (inactive) | GI50 [56]: > 100 µM (inactive) | GI50 [57]: > 100 µM (inactive) | GI50 [10]: 86.7 µM (inactive) | GI50 [11]: > 100 µM (inactive) | GI50 [12]: > 100 µM | GI50 [13]: > 100 µM (inactive) | GI50 [58]: > 100 µM (inactive) | GI50 [15]: > 100 µM (inactive) | GI50 [16]: > 100 µM (inactive) | GI50 [17]: > 100 µM (inactive) | GI50 [18]: > 100 µM (inactive) | GI50 [19]: > 100 µM (inactive) | GI50 [20]: > 100 µM (inactive) | GI50 [22]: > 100 µM (inactive) | GI50 [23]: > 100 µM (inactive) | GI50 [24]: > 100 µM (inactive) | GI50 [25]: > 100 µM (inactive) | GI50 [26]: > 100 µM (inactive) | GI50 [27]: > 100 µM (inactive) | GI50 [28]: > 100 µM (inactive) | GI50 [29]: > 100 µM (inactive) | GI50 [30]: > 100 µM (inactive) | GI50 [31]: > 100 µM (inactive) | GI50 [32]: > 100 µM (inactive) | GI50 [33]: > 100 µM (inactive) | GI50 [34]: > 100 µM (inactive) | GI50 [35]: > 100 µM (inactive) | GI50 [36]: > 100 µM (inactive) | GI50 [37]: > 100 µM (inactive) | GI50 [38]: > 100 µM (inactive) | GI50 [39]: > 100 µM (inactive) | GI50 [40]: > 100 µM (inactive) | GI50 [41]: > 100 µM (inactive) | GI50 [42]: > 100 µM (inactive) | GI50 [43]: > 100 µM (inactive) | GI50 [44]: > 100 µM (inactive) | GI50 [45]: > 100 µM (inactive) | GI50 [46]: 41.1 µM (inactive) | GI50 [47]: > 100 µM (inactive) | GI50 [48]: > 100 µM (inactive) | GI50 [49]: > 100 µM (inactive) | GI50 [50]: > 100 µM (inactive) | GI50 [51]: > 100 µM (inactive) | GI50 [52]: > 100 µM (inactive) | GI50 [53]: > 100 µM (inactive) | GI50 [54]: > 100 µM (inactive)

C1=c2ccccc2=C2C(=C(c3ccccc3)C(c3ccccc3)=NN2c2ccccc2)S1
GI50 [1]: 58.6 µM (inactive) | GI50 [2]: > 100 µM (inactive) | GI50 [3]: > 100 µM (inactive) | GI50 [4]: > 100 µM (inactive) | GI50 [5]: > 100 µM (inactive) | GI50 [6]: > 100 µM (inactive) | GI50 [7]: > 100 µM (inactive) | GI50 [8]: > 100 µM (inactive) | GI50 [55]: > 100 µM (inactive) | GI50 [56]: > 100 µM (inactive) | GI50 [57]: > 100 µM (inactive) | GI50 [10]: > 100 µM (inactive) | GI50 [11]: > 100 µM (inactive) | GI50 [12]: > 100 µM | GI50 [13]: > 100 µM (inactive) | GI50 [14]: > 100 µM (inactive) | GI50 [58]: > 100 µM (inactive) | GI50 [15]: > 100 µM (inactive) | GI50 [16]: > 100 µM (inactive) | GI50 [17]: > 100 µM (inactive) | GI50 [18]: > 100 µM (inactive) | GI50 [19]: > 100 µM (inactive) | GI50 [20]: > 100 µM (inactive) | GI50 [21]: > 100 µM (inactive) | GI50 [22]: > 100 µM (inactive) | GI50 [23]: > 100 µM (inactive) | GI50 [24]: > 100 µM (inactive) | GI50 [25]: > 100 µM (inactive) | GI50 [26]: > 100 µM (inactive) | GI50 [27]: > 100 µM (inactive) | GI50 [28]: > 100 µM (inactive) | GI50 [29]: > 100 µM (inactive) | GI50 [30]: > 100 µM (inactive) | GI50 [32]: > 100 µM (inactive) | GI50 [33]: > 100 µM (inactive) | GI50 [34]: > 100 µM (inactive) | GI50 [35]: > 100 µM (inactive) | GI50 [36]: > 100 µM (inactive) | GI50 [37]: > 100 µM (inactive) | GI50 [38]: > 100 µM (inactive) | GI50 [39]: > 100 µM (inactive) | GI50 [40]: > 100 µM (inactive) | GI50 [41]: > 100 µM (inactive) | GI50 [42]: > 100 µM (inactive) | GI50 [43]: > 100 µM (inactive) | GI50 [44]: > 100 µM (inactive) | GI50 [45]: > 100 µM (inactive) | GI50 [46]: > 100 µM (inactive) | GI50 [59]: > 100 µM (inactive) | GI50 [48]: 91.4 µM (inactive) | GI50 [49]: > 100 µM (inactive) | GI50 [50]: 46.7 µM (inactive) | GI50 [51]: > 100 µM (inactive) | GI50 [52]: > 100 µM (inactive) | GI50 [53]: > 100 µM (inactive)
